pIC50: −log10 of the molar value. Active and inactive are the calls of the source. The rule behind the calls is not given here.
Columns and labels:
[1] = biological target: Sodium-dependent serotonin transporter (Homo sapiens) (UniProt P31645); settings: Compound concentration 10.0 uM
[2] = biological target: Cell division cycle 7-related protein kinase (Homo sapiens, UniProt O00311); test: CDC7(CDC7CGP1) Takeda global kinase panel
[3] = biological target: Tyrosine-protein kinase HCK (Homo sapiens, UniProt P08631); test: HCK(HCK1LGF1) Takeda global kinase panel
[4] = biological target: Serine/threonine-protein kinase Nek1 (Homo sapiens, UniProt Q96PY6); test: Nek1(NEK1LGY1) Takeda global kinase panel
[5] = biological target: Melatonin receptor type 1A (Homo sapiens) (UniProt P48039); test: Inhibition of Melatonin MT1 at 10 µM in the Eurofins-Panlabs radioligand binding assay (Eurofins_assay_251600); parameters: ligand concentration 0.05 nM; settings: Compound concentration 10.0 uM
[6] = biological target: STE20-like serine/threonine-protein kinase (Homo sapiens, UniProt Q9H2G2); test: SLK(SLK1LGRJ) Takeda global kinase panel
Mus musculus = organism: Mus musculus; test: Inhibition of Phorbol Ester at 10 µM in the Eurofins-Panlabs radioligand binding assay (Eurofins_assay_264500); parameters: ligand concentration 3 nM; settings: Compound concentration 10.0 uM
[7] = biological target: GABA-A receptor; anion channel (Rattus norvegicus) (UniProt O09028+P15431+P18506+P18508+P19969+P20236+P23574+P23576+P28471+P28473+P30191+P62813+P63079+P63138+Q91ZM7+Q9ES14); settings: Compound concentration 10.0 uM
[8] = biological target: Mitogen-activated protein kinase 6 (Homo sapiens, UniProt Q16659); test: ERK3(MAP6LHY1) Takeda global kinase panel
[9] = biological target: Glutamate receptor ionotropic, kainate (Rattus norvegicus) (UniProt P22756+Q01812+P42260+P42264+Q63273); settings: Compound concentration 10.0 uM
[10] = biological target: Mitogen-activated protein kinase kinase kinase 7 (Homo sapiens, UniProt O43318); test: TAK1(M3K7CHY1) Takeda global kinase panel
Ephrin type-B receptor 4 = Ephrin type-B receptor 4 (Homo sapiens, UniProt P54760); test: EphB4(EPB4LGY1) Takeda global kinase panel
Activated CDC42 kinase 1 = Activated CDC42 kinase 1 (Homo sapiens, UniProt Q07912); test: Ack(TNK2LGF1) Takeda global kinase panel
Sequence of Activated CDC42 kinase 1 (Q07912 whole entry): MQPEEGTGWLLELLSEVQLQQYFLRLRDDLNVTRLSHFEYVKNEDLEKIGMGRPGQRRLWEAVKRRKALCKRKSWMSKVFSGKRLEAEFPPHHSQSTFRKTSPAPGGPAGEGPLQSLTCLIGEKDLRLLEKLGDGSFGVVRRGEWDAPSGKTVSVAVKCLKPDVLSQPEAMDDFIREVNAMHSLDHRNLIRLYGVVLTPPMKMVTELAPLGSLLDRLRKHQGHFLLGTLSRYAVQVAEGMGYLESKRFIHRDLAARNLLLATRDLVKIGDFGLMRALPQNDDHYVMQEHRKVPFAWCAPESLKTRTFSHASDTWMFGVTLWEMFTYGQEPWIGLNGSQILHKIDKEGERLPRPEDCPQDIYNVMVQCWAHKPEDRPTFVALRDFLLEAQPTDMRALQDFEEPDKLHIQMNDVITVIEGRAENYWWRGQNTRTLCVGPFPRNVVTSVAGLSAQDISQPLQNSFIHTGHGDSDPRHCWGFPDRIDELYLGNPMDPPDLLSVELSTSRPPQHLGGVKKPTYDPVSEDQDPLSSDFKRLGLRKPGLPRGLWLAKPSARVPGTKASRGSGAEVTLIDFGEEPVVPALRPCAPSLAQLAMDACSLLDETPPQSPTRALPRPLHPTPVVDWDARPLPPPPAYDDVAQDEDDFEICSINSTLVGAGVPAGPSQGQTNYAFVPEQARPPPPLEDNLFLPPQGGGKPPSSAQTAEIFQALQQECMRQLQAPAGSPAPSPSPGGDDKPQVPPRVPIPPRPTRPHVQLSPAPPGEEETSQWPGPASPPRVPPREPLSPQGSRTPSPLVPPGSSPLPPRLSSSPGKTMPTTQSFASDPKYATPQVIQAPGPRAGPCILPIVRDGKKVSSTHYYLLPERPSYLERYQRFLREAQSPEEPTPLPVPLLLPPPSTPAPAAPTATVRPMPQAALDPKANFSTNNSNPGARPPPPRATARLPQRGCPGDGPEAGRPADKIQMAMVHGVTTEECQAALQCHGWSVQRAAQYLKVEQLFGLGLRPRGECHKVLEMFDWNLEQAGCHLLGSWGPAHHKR

[11] = biological target: Non-receptor tyrosine-protein kinase TYK2 (Homo sapiens, UniProt P29597); test: Tyk2(TYK2LGF1) Takeda global kinase panel
[12] = biological target: Phosphatidylinositol 4,5-bisphosphate 3-kinase catalytic subunit beta isoform (Homo sapiens, UniProt P42338); test: PIK3CB(PI3BCGRK) Takeda global kinase panel
[13] = biological target: Tyrosine-protein kinase SYK (Homo sapiens, UniProt P43405); test: Syk(SYK1LHY1) Takeda global kinase panel
[14] = biological target: RAC-beta serine/threonine-protein kinase (Homo sapiens, UniProt P31751); test: Akt2 [PKBbeta(AKT2CGY1)] Takeda global kinase panel
[15] = biological target: Histamine H1 receptor (Homo sapiens) (UniProt P35367); settings: Compound concentration 10.0 uM
[16] = biological target: Hormonally up-regulated neu tumor-associated kinase (Homo sapiens, UniProt P57058); test: HUNK(HUNKLGRN) Takeda global kinase panel
[17] = biological target: Cysteinyl leukotriene receptor 1 (Homo sapiens) (UniProt Q9Y271); test: Inhibition of Leukotriene, Cysteinyl CysLT1 at 10 µM in the Eurofins-Panlabs radioligand binding assay (Eurofins_assay_250460); parameters: ligand concentration 0.3 nM, non-specific ligand with concentration 0.3 µM Leukotriene D4, incubation time 30 min, incubation temperature 25 °C; settings: Compound concentration 10.0 uM
[18] = biological target: Tyrosine-protein kinase CSK (Homo sapiens, UniProt P41240); test: CSK(CSK1LGF1) Takeda global kinase panel
[19] = biological target: Bromodomain testis-specific protein (Homo sapiens, UniProt Q58F21); test: BRDT(BRDTLGRC) Takeda global kinase panel
[20] = biological target: Serine/threonine-protein kinase PAK 6 (Homo sapiens, UniProt Q9NQU5); test: PAK6(PAK6CGY1) Takeda global kinase panel
[21] = biological target: Protein kinase C iota type (Homo sapiens, UniProt P41743); test: PKCiota(PRKILGRD) Takeda global kinase panel
[22] = biological target: Serine/threonine-protein kinase DCLK3 (Homo sapiens, UniProt Q9C098); test: DCAMKL3(DCL3LGP1) Takeda global kinase panel
Sequence of Serine/threonine-protein kinase DCLK3 (Q9C098 whole entry): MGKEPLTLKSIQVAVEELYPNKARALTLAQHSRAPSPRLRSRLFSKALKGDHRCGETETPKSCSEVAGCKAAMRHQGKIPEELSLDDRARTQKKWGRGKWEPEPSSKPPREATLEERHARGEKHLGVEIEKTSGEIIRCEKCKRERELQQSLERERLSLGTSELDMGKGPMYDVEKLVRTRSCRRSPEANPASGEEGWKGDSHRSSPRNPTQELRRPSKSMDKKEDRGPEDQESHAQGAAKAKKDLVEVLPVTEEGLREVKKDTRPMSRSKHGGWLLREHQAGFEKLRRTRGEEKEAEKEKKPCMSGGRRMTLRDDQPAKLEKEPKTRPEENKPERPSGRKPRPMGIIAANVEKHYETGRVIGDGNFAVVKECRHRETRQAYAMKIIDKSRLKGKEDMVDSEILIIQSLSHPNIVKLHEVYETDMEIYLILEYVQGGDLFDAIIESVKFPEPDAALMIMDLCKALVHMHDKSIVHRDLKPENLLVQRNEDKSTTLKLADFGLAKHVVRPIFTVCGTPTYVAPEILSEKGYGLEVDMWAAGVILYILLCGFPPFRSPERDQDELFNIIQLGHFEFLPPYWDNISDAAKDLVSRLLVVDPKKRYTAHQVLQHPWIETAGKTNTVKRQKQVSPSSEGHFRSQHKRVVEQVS

[23] = biological target: Serine/threonine-protein kinase tousled-like 1 (Homo sapiens, UniProt Q9UKI8); test: TLK1(TLK1LGP1) Takeda global kinase panel
[24] = biological target: Mitogen-activated protein kinase 8 (Homo sapiens, UniProt P45983); test: JNK1(MAP8LGF1) Takeda global kinase panel
Rattus norvegicus = organism: Rattus norvegicus; test: Inhibition of Rolipram at 10 µM in the Eurofins-Panlabs radioligand binding assay (Eurofins_assay_268811); assay type: protein assay; parameters: ligand concentration 1.8 nM; settings: Compound concentration 10.0 uM
[25] = biological target: Interleukin-1 receptor-associated kinase 4 (Homo sapiens, UniProt Q9NWZ3); test: IRAK4(IRK4LGF1) Takeda global kinase panel
[26] = biological target: Mitogen-activated protein kinase kinase kinase 13 (Homo sapiens, UniProt O43283); test: LZK(M313LGRJ) Takeda global kinase panel
[27] = biological target: Microtubule-associated serine/threonine-protein kinase 3 (Homo sapiens, UniProt O60307); test: MAST3(MAS3LGE1) Takeda global kinase panel
[28] = biological target: Receptor-interacting serine/threonine-protein kinase 1 (Mus musculus, UniProt Q60855); test: TR-FRET (mouse RIPK1)
[29] = biological target: cAMP-dependent protein kinase catalytic subunit PRKX (Homo sapiens, UniProt P51817); test: PRKX(PRKXLGH5) Takeda global kinase panel
Sequence of cAMP-dependent protein kinase catalytic subunit PRKX (P51817 whole entry): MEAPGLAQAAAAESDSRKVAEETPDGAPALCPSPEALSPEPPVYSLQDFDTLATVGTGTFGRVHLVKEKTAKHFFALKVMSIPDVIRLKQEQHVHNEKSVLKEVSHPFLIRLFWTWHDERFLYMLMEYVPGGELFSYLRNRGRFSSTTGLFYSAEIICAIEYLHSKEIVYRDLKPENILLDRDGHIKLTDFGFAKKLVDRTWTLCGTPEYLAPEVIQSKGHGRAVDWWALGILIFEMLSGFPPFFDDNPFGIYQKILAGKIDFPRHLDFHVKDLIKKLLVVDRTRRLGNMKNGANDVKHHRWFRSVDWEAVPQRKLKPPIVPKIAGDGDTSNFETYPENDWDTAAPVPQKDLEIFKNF

[30] = biological target: Neuropeptide Y receptor type 2 (Homo sapiens) (UniProt P49146); test: Inhibition of Neuropeptide Y Y2 at 10 µM in the Eurofins-Panlabs radioligand binding assay (Eurofins_assay_257110); settings: Compound concentration 10.0 uM
[31] = biological target: Adenosine receptor A1 (Homo sapiens) (UniProt P30542); settings: Compound concentration 10.0 uM
Sequence of Adenosine receptor A1 (Homo sapiens) (P30542 whole entry): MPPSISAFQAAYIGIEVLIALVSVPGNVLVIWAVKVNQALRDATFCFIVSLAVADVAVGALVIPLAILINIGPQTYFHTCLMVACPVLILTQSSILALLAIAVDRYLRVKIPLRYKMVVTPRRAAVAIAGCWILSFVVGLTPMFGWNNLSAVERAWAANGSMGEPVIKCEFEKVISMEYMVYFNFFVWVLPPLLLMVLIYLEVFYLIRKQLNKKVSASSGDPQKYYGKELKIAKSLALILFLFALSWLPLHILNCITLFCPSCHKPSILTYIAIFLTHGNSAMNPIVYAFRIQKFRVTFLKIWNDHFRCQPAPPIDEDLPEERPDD

[32] = biological target: Serine/threonine-protein kinase VRK1 (Homo sapiens, UniProt Q99986); test: VRK1(VRK1LGRI) Takeda global kinase panel
Sequence of Serine/threonine-protein kinase VRK1 (Q99986 whole entry): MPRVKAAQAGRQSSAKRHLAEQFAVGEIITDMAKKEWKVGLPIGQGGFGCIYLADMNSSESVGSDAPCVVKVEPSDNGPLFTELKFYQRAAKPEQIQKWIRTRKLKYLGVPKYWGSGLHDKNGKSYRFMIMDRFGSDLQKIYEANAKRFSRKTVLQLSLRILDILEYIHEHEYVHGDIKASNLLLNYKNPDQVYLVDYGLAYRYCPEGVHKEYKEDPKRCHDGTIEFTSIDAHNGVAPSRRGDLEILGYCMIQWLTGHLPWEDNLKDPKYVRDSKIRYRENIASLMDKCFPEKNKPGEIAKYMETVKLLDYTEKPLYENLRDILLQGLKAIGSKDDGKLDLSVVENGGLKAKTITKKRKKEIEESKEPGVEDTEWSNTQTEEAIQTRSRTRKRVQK

[33] = biological target: Sodium-dependent noradrenaline transporter (Homo sapiens) (UniProt P23975); settings: Compound concentration 10.0 uM
[34] = biological target: Cyclin-dependent kinase 18 (Homo sapiens, UniProt Q07002); test: PCTAIRE3(CD18SGS1) Takeda global kinase panel
[35] = biological target: Mitogen-activated protein kinase kinase kinase 9 (Homo sapiens, UniProt P80192); test: MLK1(M3K9LGF1) Takeda global kinase panel
Sequence of Mitogen-activated protein kinase kinase kinase 9 (P80192 whole entry): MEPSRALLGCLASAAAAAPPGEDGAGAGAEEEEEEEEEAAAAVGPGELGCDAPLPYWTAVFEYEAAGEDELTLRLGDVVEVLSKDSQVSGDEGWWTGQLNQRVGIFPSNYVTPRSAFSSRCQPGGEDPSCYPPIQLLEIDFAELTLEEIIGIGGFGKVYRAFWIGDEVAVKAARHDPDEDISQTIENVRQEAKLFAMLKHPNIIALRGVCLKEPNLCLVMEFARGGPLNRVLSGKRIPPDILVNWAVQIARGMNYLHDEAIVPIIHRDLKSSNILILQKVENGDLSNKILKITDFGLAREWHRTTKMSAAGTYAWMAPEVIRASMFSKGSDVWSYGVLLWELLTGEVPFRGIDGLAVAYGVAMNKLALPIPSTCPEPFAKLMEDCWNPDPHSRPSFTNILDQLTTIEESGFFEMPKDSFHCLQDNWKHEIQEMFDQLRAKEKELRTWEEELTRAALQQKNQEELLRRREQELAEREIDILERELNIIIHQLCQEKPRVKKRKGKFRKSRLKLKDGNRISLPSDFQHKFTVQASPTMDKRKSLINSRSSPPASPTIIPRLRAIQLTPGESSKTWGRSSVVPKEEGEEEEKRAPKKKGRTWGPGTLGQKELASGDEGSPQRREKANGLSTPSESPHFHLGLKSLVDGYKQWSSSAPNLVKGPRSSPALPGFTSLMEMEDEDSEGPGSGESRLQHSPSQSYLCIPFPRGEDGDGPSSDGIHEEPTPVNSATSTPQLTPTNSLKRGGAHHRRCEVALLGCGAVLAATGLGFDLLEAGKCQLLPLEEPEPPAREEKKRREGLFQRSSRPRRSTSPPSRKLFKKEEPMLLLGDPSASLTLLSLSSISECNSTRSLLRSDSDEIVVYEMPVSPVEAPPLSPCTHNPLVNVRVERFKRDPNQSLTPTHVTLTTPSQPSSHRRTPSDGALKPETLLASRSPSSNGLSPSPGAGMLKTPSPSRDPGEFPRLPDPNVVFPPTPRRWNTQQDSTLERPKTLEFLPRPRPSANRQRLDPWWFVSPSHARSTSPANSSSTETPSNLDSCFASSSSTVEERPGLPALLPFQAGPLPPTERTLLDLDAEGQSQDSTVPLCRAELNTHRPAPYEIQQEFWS

[36] = biological target: Cyclin-dependent kinase 9 (Homo sapiens, UniProt P50750); test: CDK9(CDK9CGS1) Takeda global kinase panel
Sequence of Cyclin-dependent kinase 9 (P50750 whole entry): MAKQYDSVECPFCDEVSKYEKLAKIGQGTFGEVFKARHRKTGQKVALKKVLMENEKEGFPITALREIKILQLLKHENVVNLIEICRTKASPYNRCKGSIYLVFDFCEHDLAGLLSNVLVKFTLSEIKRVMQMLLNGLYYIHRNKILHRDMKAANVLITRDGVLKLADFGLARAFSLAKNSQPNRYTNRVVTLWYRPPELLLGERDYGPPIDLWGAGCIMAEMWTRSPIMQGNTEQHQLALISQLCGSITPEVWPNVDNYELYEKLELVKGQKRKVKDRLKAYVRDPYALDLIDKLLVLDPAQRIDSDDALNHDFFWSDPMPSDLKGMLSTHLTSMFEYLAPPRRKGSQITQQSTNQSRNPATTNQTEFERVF

[37] = biological target: Protein kinase C epsilon type (Homo sapiens, UniProt Q02156); test: PKCepsilon(PRKELHY1) Takeda global kinase panel
Sequence of Protein kinase C epsilon type (Q02156 whole entry): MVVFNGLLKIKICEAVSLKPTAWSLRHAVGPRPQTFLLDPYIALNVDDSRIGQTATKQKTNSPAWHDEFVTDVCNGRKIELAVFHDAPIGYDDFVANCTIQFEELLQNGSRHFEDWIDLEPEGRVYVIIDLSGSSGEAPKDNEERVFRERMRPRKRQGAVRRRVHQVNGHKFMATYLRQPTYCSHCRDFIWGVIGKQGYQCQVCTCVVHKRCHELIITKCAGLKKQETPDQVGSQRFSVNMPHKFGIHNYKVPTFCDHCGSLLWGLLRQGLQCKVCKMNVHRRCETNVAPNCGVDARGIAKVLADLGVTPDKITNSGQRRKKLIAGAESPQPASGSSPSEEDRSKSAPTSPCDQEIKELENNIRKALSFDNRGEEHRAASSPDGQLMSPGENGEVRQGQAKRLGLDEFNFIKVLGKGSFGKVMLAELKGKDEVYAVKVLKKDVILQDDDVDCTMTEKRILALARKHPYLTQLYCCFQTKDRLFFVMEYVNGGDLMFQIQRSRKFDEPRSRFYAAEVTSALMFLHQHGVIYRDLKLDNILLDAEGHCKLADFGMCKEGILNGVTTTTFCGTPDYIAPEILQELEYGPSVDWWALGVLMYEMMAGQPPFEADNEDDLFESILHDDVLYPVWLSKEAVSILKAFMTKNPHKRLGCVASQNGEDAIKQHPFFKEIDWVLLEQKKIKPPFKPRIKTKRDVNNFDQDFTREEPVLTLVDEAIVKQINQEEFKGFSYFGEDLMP

[38] = biological target: Serine/threonine-protein kinase B-raf (Homo sapiens, UniProt P15056); test: BRAF(BRAFLGY1) Takeda global kinase panel
[39] = biological target: Phosphatidylinositol 4,5-bisphosphate 3-kinase catalytic subunit alpha isoform (Homo sapiens, UniProt P42336); test: PI3KCA(PI3ACGR1) Takeda global kinase panel

## CN1C(=O)[C@@H](N2CCc3cn(Cc4ccccc4)nc3C2=O)COc2ccccc21 [TP-030-1]
[1]
  inhibition: -4%
[2]
  pIC50: 6.00
[3]
  pIC50: 6.00
[4]
  pIC50: 6.00
[5]
  inhibition: 45%
[6]
  pIC50: 6.00
Mus musculus
  inhibition: -3%
[7]
  inhibition: 8%
[8]
  pIC50: 6.00
[9]
  inhibition: -2%
[10]
  pIC50: 6.00
Ephrin type-B receptor 4
  pIC50: 6.00
Activated CDC42 kinase 1
  pIC50: 6.00
[11]
  pIC50: 6.00
[12]
  pIC50: 6.00
[13]
  pIC50: 6.00
[14]
  pIC50: 6.00
[15]
  inhibition: 3%
[16]
  pIC50: 6.00
[17]
  inhibition: 0%
[18]
  pIC50: 6.00
[19]
  pIC50: 6.00
[20]
  pIC50: 6.00
[21]
  pIC50: 6.00
[22]
  pIC50: 6.00
[23]
  pIC50: 6.00
[24]
  pIC50: 6.00
Rattus norvegicus
  inhibition: 0%
[25]
  pIC50: 6.00
[26]
  pIC50: 6.00
[27]
  pIC50: 6.00
[28]
  IC50: 4200 nM (active)
[29]
  pIC50: 6.00
[30]
  inhibition: 2%
[31]
  inhibition: 7%
[32]
  pIC50: 6.00
[33]
  inhibition: 15%
[34]
  pIC50: 6.00
[35]
  pIC50: 6.00
[36]
  pIC50: 6.00
[37]
  pIC50: 6.00
[38]
  pIC50: 6.00
[39]
  pIC50: 6.00

## CN1C(=O)[C@@H](N2CCc3cn(CC4CCS(=O)(=O)CC4)nc3C2=O)COc2ccccc21 [TP-030n]
[1]
  inhibition: 5%
[2]
  pIC50: 6.00
[3]
  pIC50: 6.00
[4]
  pIC50: 6.00
[5]
  inhibition: 9%
[6]
  pIC50: 6.00
Mus musculus
  inhibition: 7%
[7]
  inhibition: 12%
[8]
  pIC50: 6.00
[9]
  inhibition: 7%
[10]
  pIC50: 6.00
Ephrin type-B receptor 4
  pIC50: 6.00
Activated CDC42 kinase 1
  pIC50: 6.00
[11]
  pIC50: 6.00
[12]
  pIC50: 6.00
[13]
  pIC50: 6.00
[14]
  pIC50: 6.00
[15]
  inhibition: 8%
[16]
  pIC50: 6.00
[17]
  inhibition: 0%
[18]
  pIC50: 6.00
[19]
  pIC50: 6.00
[20]
  pIC50: 6.00
[21]
  pIC50: 6.00
[22]
  pIC50: 6.00
[23]
  pIC50: 6.00
[24]
  pIC50: 6.00
Rattus norvegicus
  inhibition: 1%
[25]
  pIC50: 6.00
[26]
  pIC50: 6.00
[27]
  pIC50: 6.00
[28]
  IC50: > 10000 nM (not active)
[29]
  pIC50: 6.00
[30]
  inhibition: 1%
[31]
  inhibition: -2%
[32]
  pIC50: 6.00
[33]
  inhibition: 3%
[34]
  pIC50: 6.00
[35]
  pIC50: 6.00
[36]
  pIC50: 6.00
[37]
  pIC50: 6.00
[38]
  pIC50: 6.00
[39]
  pIC50: 6.00

From ChEMBL document CHEMBL4507327 (2021)
